Among the data in US20260347338A1, “PYRIMIDINE/PYRIDINE DERIVATIVES OR SALTS THEREOF AND PHARMACEUTICAL COMPOSITIONS COMPRISING THE SAME” (YUHAN CORPORATION, priority 2023, published 2026) are IC50 values, retold here.

The term IC50 denotes the concentration that inhibits the measured activity by half.

In this assay the target is T1, human recombinant HPK1 (Homo sapiens, UniProt Q92918).
T1 construct: purchased BPS Bioscience
The experiment in a line: Inhibitory activity against human recombinant HPK1 (TR-FRET). The format is biochemical. To be noted: ULight-p70S6K peptide, ATP at Km, room temperature, 1 hour, 0.32 to 1000 nM compound. The method, then: Test Example: Evaluation of Inhibitory Activity Against Human Recombinant HPK1
The inhibitory activity against human recombinant HPK1 was evaluated using the Time-Resolved Fluorescence Resonance Energy Transfer (TR-FRET) technology of Perkin-Elmer. The test compound was prepared as a 20 mM stock solution with dimethyl sulfoxide (DMSO), serially diluted in a buffer solution, and used at final compound concentrations of 0.32 to 1000 nM. The evaluation of inhibitory activity was carried out at room temperature, using recombinant human HPK1 (BPS Bioscience). Briefly, recombinant human HPK1, serially diluted each test compound, ULight-p70S6K peptide substrate (PerkinElmer), and ATP at each concentration (Km and final concentration) were added to a kinase buffer solution (50 mM HEPES pH 7.4, 10 mM MgCl2, 1 mM EGTA, 3 mM MnCl2, 2 mM DTT, and 0.01% Tween-20). The resulting mixture was added to each well of a 384-well plate (Optiplate™ 384, white, PerkinElmer). The enzyme reaction was carried out at room temperature for 1 hour. After the reaction was suspended by adding 4 μL of a stop solution (10 mM EDTA) thereto, the mixture was stirred for 1 minute and then a detection solution containing Europium-labeled anti-phosphopeptide antibody (final concentration: 2 nM, PerkinElmer) was added thereto. The signals of TR-FRET at excitation wavelength (320 nm) and emission wavelength (665 nm) were detected using a microplate reader (Envision Multilabel Reader, Perkin-Elmer). Inhibition by the test compound was measured as % inhibition in the signals, compared to the control group treated with DMSO only. The IC50 value of each compound was calculated using the GraphPad Prism program (GraphPad Software, Inc., San Diego, CA, USA). The IC50 values of test compounds for inhibitory activity against HPK1 were classified as follows: • A: IC50≤10 nM • B: 10 nM<IC50≤50 nM • C: 50 nM<IC50≤100 nM • D: IC50>100 nM
In general terms: In TR-FRET formats the signal depends on donor and acceptor labels being close together.

Structures can show the parent of a compound that is named as a salt. Some results are limits rather than exact numbers.

T1 sequence (Q92918 whole entry): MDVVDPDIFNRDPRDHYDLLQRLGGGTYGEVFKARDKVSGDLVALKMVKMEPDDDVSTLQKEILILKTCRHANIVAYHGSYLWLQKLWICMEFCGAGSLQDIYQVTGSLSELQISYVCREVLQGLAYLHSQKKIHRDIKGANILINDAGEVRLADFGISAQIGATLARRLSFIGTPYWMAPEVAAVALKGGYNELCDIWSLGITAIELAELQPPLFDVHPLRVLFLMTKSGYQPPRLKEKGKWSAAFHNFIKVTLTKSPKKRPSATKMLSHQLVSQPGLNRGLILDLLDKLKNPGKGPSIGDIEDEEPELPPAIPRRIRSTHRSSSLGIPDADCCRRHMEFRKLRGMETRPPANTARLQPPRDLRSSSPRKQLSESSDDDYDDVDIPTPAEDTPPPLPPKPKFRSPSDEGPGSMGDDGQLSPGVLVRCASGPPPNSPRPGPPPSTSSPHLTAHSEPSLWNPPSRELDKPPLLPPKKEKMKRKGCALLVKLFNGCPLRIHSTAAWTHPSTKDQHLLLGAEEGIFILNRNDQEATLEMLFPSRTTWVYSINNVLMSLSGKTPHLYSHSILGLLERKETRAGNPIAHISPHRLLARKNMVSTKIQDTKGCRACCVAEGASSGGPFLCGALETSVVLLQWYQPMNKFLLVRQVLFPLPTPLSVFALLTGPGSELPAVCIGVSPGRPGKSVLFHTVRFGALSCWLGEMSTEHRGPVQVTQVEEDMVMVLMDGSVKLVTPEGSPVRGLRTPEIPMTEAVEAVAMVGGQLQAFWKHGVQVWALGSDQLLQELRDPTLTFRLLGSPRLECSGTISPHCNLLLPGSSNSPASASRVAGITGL

For `COc1cc(F)cc(F)c1-c1nc(Nc2cc(N3CCC[C@H](O)C3)c(-c3cnn(C(F)F)c3)cn2)ccc1N` [Example 184, (3S)-1-(2-((5-amino-6-(2,4-difluoro-6-methoxyphenyl)pyridin-2-yl)amino)-5-(1-(difluoromethyl)-1H-pyrazol-4-yl)pyridin-4-yl)piperidin-3-ol], the IC50 was at most 10 nM.

Consider `COc1cccc(F)c1-c1nccc(Nc2cc(N3CCC4(CCN(C)C4)CC3)c(-c3cnn(C(F)F)c3)cn2)n1` [Example 135, N-(5-(1-(difluoromethyl)-1H-pyrazol-4-yl)-4-(2-methyl-2,8-diazaspiro[4.5]decan-8-yl)pyridin-2-yl)-2-(2-fluoro-6-methoxyphenyl)pyrimidin-4-amine], for which the 50% inhibitory concentration (IC50) was at most 10 nM.

With `COc1cccc(F)c1-c1nc(Nc2cc(N3CCC[C@H](N)C3)c(-c3cnn(C4CCOCC4)c3)cn2)ccc1C(=O)N(C)C` [Example 130, 6-((4-((S)-3-aminopiperidin-1-yl)-5-(1-(tetrahydro-2H-pyran-4-yl)-1H-pyrazol-4-yl)pyridin-2-yl)amino)-2-(2-fluoro-6-methoxyphenyl)-N,N-dimethylnicotinamide hydrochloride], the half-maximal inhibitory concentration (IC50) is at most 10 nM.

For `COc1cccc(F)c1-c1nccc(Nc2cc(N3CCC4(CCNC4)CC3)c(-c3cnn(C4CCOCC4)c3)cn2)n1` [Example 92, N-(4-(2,8-diazaspiro[4.5]decan-8-yl)-5-(1-(tetrahydro-2H-pyran-4-yl)-1H-pyrazol-4-yl)pyridin-2-yl)-2-(2-fluoro-6-methoxyphenyl)pyrimidin-4-amine hydrochloride], the IC50 was at most 10 nM.

As to `COc1cccc(F)c1-c1nccc(Nc2cc(N3CCC[C@H](N)C3)c(-c3cnc4c(c3)CCC(=O)N4)cn2)n1` [Example 276, (S)-6-(4-(3-aminopiperidin-1-yl)-6-((2-(2-fluoro-6-methoxyphenyl)pyrimidin-4-yl)amino)pyridin-3-yl)-3,4-dihydro-1,8-naphthyridin-2(1H)-one hydrochloride], the IC50 was at most 10 nM.

Turning to `COc1cccc(F)c1-c1nccc(Nc2cc(N3CCC[C@H](N)C3)c(-c3cnn(CCCN(C)C)c3)cn2)n1` [Example 236, (S)-N-(4-(3-aminopiperidin-1-yl)-5-(1-(3-(dimethylamino)propyl)-1H-pyrazol-4-yl)pyridin-2-yl)-2-(2-fluoro-6-methoxyphenyl)pyrimidin-4-amine hydrochloride], the concentration for half-maximal inhibition (IC50) is at most 10 nM.

As for `CN[C@H]1CCCN(c2cc(Nc3ccnc(-c4c(F)cccc4OC)n3)ncc2-c2cnn(C(F)F)c2)C1` [Example 122, (S)-N-(5-(1-(difluoromethyl)-1H-pyrazol-4-yl)-4-(3-(methylamino)piperidin-1-yl)pyridin-2-yl)-2-(2-fluoro-6-methoxyphenyl)pyrimidin-4-amine hydrochloride], the 50% inhibitory concentration (IC50) is at most 10 nM.

Turning to `COc1cc(F)cc(F)c1-c1nc(Nc2cc(N3CC[C@@H](F)[C@H](N)C3)c(-c3cnn(C(C)C)c3)cn2)ccc1C#N` [Example 340, 6-((4-((3R,4R)-3-amino-4-fluoropiperidin-1-yl)-5-(1-isopropyl-1H-pyrazol-4-yl)pyridin-2-yl)amino)-2-(2,4-difluoro-6-methoxyphenyl)nicotinonitrile hydrochloride], the IC50 is at most 10 nM.

On to `O[C@H]1CCCN(c2cc(Nc3ccnc(-c4cc5nccnc5cc4F)n3)ncc2-c2cnn(C3CCOCC3)c2)C1` [Example 69, (S)-1-(2-((2-(7-fluoroquinoxalin-6-yl)pyrimidin-4-yl)amino)-5-(1-(tetrahydro-2H-pyran-4-yl)-1H-pyrazol-4-yl)pyridin-4-yl)piperidin-3-ol], for which the concentration for half-maximal inhibition (IC50) was at most 10 nM.

For the compound `COc1cc(CN(C)C)cc(F)c1-c1nccc(Nc2cc(N3CCC[C@H](N)C3)c(-c3cnn(C(F)F)c3)cn2)n1` [Example 104, (S)-N-(4-(3-aminopiperidin-1-yl)-5-(1-(difluoromethyl)-1H-pyrazol-4-yl)pyridin-2-yl)-2-(4-((dimethylamino)methyl)-2-fluoro-6-methoxyphenyl)pyrimidin-4-amine hydrochloride], the IC50 was at most 10 nM.

In the case of `COc1cc(F)cc(F)c1-c1nc(Nc2cc(N3CCC[C@H](N)C3)c(-c3cnn(C4CCOCC4)c3)cn2)ccc1C#N` [Example 309, 6-((4-((S)-3-aminopiperidin-1-yl)-5-(1-(tetrahydro-2H-pyran-4-yl)-1H-pyrazol-4-yl)pyridin-2-yl)amino)-2-(2,4-difluoro-6-methoxyphenyl)nicotinonitrile hydrochloride], the IC50 was at most 10 nM.

For the compound `CN[C@H]1CCN(c2cc(Nc3ccnc(-c4c(F)cccc4OC)n3)ncc2-c2cnn(C3CCOCC3)c2)C1` [Example 124, (S)-2-(2-fluoro-6-methoxyphenyl)-N-(4-(3-(methylamino)pyrrolidin-1-yl)-5-(1-(tetrahydro-2H-pyran-4-yl)-1H-pyrazol-4-yl)pyridin-2-yl)pyrimidin-4-amine], the half-inhibitory concentration (IC50) was at most 10 nM.

For the compound `COc1cc(F)cc(F)c1-c1nccc(Nc2cc(N3CCC[C@H](O)C3)c(C#Cc3cnn(C(F)F)c3)cn2)n1` [Example 217, (S)-1-(2-((2-(2,4-difluoro-6-methoxyphenyl)pyrimidin-4-yl)amino)-5-((1-(difluoromethyl)-1H-pyrazol-4-yl)ethynyl)pyridin-4-yl)piperidin-3-ol], the IC50 was at most 10 nM.

Take `COc1cccc(F)c1-c1nccc(Nc2cc(N3C[C@@H](N)C[C@@H](F)C3)c(-c3cnn(C(F)F)c3)cn2)n1` [Example 303, N-(4-((3S,5R)-3-amino-5-fluoropiperidin-1-yl)-5-(1-(difluoromethyl)-1H-pyrazol-4-yl)pyridin-2-yl)-2-(2-fluoro-6-methoxyphenyl)pyrimidin-4-amine hydrochloride]: the IC50 was at most 10 nM.

In the case of `COc1cccc(F)c1-c1nccc(Nc2cc(N3CCCC(NC(C)=O)C3)c(-c3cnn(C4CCOCC4)c3)cn2)n1` (stereo not shown) [Example 86, N-(1-(2-((2-(2-fluoro-6-methoxyphenyl)pyrimidin-4-yl)amino)-5-(1-(tetrahydro-2H-pyran-4-yl)-1H-pyrazol-4-yl)pyridin-4-yl)piperidin-3-yl)acetamide], the half-inhibitory concentration (IC50) was 50 to 100 nM.

As to `COc1cccc(F)c1-c1nccc(Nc2cc(N3CCC[C@H](C(N)=O)C3)c(-c3cnn(C4CCOCC4)c3)cn2)n1` [Example 50, (S)-1-(2-((2-(2-fluoro-6-methoxyphenyl)pyrimidin-4-yl)amino)-5-(1-(tetrahydro-2H-pyran-4-yl)-1H-pyrazol-4-yl)pyridin-4-yl)piperidin-3-carboxamide], the 50% inhibitory concentration (IC50) was above 100 nM.

Take `COc1cccc(F)c1-c1nc(Nc2cc(N3CCC[C@H](N)C3)c(-c3cnn(CC(C)(C)O)c3)cn2)ccc1C#N` [Example 319, 6-((4-((S)-3-aminopiperidin-1-yl)-5-(1-(2-hydroxy-2-methylpropyl)-1H-pyrazol-4-yl)pyridin-2-yl)amino)-2-(2-fluoro-6-methoxyphenyl)nicotinonitrile hydrochloride]: the IC50 is at most 10 nM.

For the compound `COC(=O)c1ccc(Nc2cc(N3CCC[C@H](O)C3)c(-c3cnn(C4CCOCC4)c3)cn2)nc1-c1c(F)cccc1OC` [Example 60, methyl 2-(2-fluoro-6-methoxyphenyl)-6-((4-((S)-3-hydroxypiperidin-1-yl)-5-(1-(tetrahydro-2H-pyran-4-yl)-1H-pyrazol-4-yl)pyridin-2-yl)amino)nicotinate], the IC50 is at most 10 nM.

As for `COc1cccc(F)c1-c1nccc(Nc2cc(N3CCC(C4(O)CC4)CC3)c(-c3cnn(C4CCOCC4)c3)cn2)n1` [Example 65, 1-(1-(2-((2-(2-fluoro-6-methoxyphenyl)pyrimidin-4-yl)amino)-5-(1-(tetrahydro-2H-pyran-4-yl)-1H-pyrazol-4-yl)pyridin-4-yl)piperidin-4-yl)cyclopropan-1-ol], the half-maximal inhibitory concentration (IC50) is at most 10 nM.

On to `N[C@H]1CCCN(c2cc(Nc3ccnc(-c4cc5nccnc5cc4F)n3)ncc2-c2cnn(C(F)F)c2)C1` [Example 88, (S)-N-(4-(3-aminopiperidin-1-yl)-5-(1-(difluoromethyl)-1H-pyrazol-4-yl)pyridin-2-yl)-2-(7-fluoroquinoxalin-6-yl)pyrimidin-4-amine hydrochloride], for which the IC50 was at most 10 nM.

With `COc1cccc(F)c1-c1nccc(Nc2cc(N3CCC[C@H](CF)C3)c(-c3cnn(C(F)F)c3)cn2)n1` [Example 272, (S)-N-(5-(1-(difluoromethyl)-1H-pyrazol-4-yl)-4-(3-(fluoromethyl)piperidin-1-yl)pyridin-2-yl)-2-(2-fluoro-6-methoxyphenyl)pyrimidin-4-amine], the IC50 was at most 10 nM.

With `COc1cccc(F)c1-c1nc(Nc2cc(N3CCC[C@H](O)C3)c(-c3cnn(CC(F)F)c3)cn2)ccc1C(N)=O` [Example 160, 6-((5-(1-(2,2-difluoroethyl)-1H-pyrazol-4-yl)-4-((S)-3-hydroxypiperidin-1-yl)pyridin-2-yl)amino)-2-(2-fluoro-6-methoxyphenyl)nicotinamide], the IC50 is at most 10 nM.
